Assay [1] concerns the target T1, HumRADA2 (Pyrococcus furiosus, UniProt O74036, D220A/DEL288-314/E219S/I169M/K221M/V202Y/Y201A). The settings on record: previously published fragment screening, humanised RadA, cited from earlier work.
Assay [2] deals with T1, HumRADA2. Briefly: Isothermal titration calorimetry (ITC), direct binding to HumRADA2. The settings on record: for -TDS / DG / DH: ITC thermodynamic binding profile, Table S1; for LLE: LLE=pKD−clog P, clog P calculated with Instant JChem (ChemAxon). The text has this:
We previously published fragment-screening results using a humanised RAD51 surrogate from Pyrococcus furiosus, which we refer to as HumRADA2 (previously referred to as MAYSAM RadA).[23] In this surrogate protein, the N-terminal domain with the oligomerisation sequence was removed to monomerise the protein and expose the FxxA binding site for screening, and six surface residues were mutated around the Phe pocket in order to humanise the protein in this region.
(§1) Supplemental Experimental Procedures
(§2) C-terminal ATPase domain of P. furiosus RadA (residues 108–349, with deletion of the “L2” loop residues 288–314) was expressed in E.coli and purified as described before using ion-exchange ad size exclusion chromatographies.[1] Purified protein was concentrated to 0.5 mM, flash frozen in liquid nitrogen and stored at -80C. Protein concentration was determined by measuring absorbance at 280 nm in 6M GndHCl and using calculated absorption coefficient […]
(§3) Isothermal Titration Calorimetry
(§4) ITC experiments were performed at 25°C on a MicroCal ITC-200 (GE Healthcare).
(§5) HumRadA2 (humanized RadA) (600 µM in 20 mM MES pH 6.0 with 100 mM NaCl and 0.5 mM EDTA was diluted with Tris buffer (200 mM, pH 7.5 with 100 mM NaCl), and DMSO was added to match to the ligand solution. In titrations with ATP, 5 mM MgCl2 was included in the ligand buffer and the protein buffer. Compounds in DMSO were diluted into the same Tris buffer to give a final concentration of 0.6–10 mM ligand in 10% DMSO and Tris buffer. Care was taken to ensure that the DMSO concentrations in the protein and ligand solutions were well matched so as to avoid artefacts arising from heats of dilution of DMSO. In a typical experiment, protein (60 µM) was loaded in the sample cell, and 16 injections (2.4 µL) of 4.8 s duration were made at 80 s intervals from a syringe loaded with ligand (0.6–10 mM) and rotating at 1000 rpm. In all titrations, an initial injection of ligand (0.4 µL) was made and discarded during data analysis. Control titrations of ligand to buffer were performed and […]
(§6) The thermodynamic parameters were obtained by fitting the data to a single-site-binding model by using Origin software and fixing the stoichiometry as 1.0 for […]

For assay [3], the target named is T1, HumRADA2. Briefly: Competitive ITC experiments to HumRADA2 (ligand titrated in the presence of compound). The assay is classed as binding. The settings on record: protein pre-incubated with compound (200 μM 5 c). As to the method: The KD measurement of each ligand was then repeated, but in the presence of 200 μM 5 c (bottom row titrations, Figure 2 B).
as §1, §2, §3, §4, §5, §6

Another assay deals with wild-type RadA. Description: ITC, direct binding to unhumanised wild-type RadA. Details: species or system Pyrococcus furiosus. To be noted: unhumanised wild-type RadA protein. (In ITC the heat of successive injections is recorded.)
The mark [4] stands for this setting: substituted tryptamine series (Table 2).
Where [5] appears, read: tryptophan ester series (Table 1).

“Also recorded” adds a separate entry of the source. Like-named read-outs stand apart in the source and are kept apart here.

On to Ac-FHTA-NH2 [reference compound], for which the Kd is 250 µM at HumRADA2 [1] (read-out: KD) and 250 µM at HumRADA2 [2] (ITC against apo protein, in the absence of 5 c, read-out: KD).

Regarding `O=S(=O)(NCCc1c[nH]c2ccccc12)c1cc(Br)c(Cl)s1` [7 m], at HumRADA2 [3], the “competition with binding of the RadA self-oligomerisation peptide” value was “blockage of the binding”. Moreover, on HumRADA2 [2], the Kd was determined as 1.3 ± 0.1 µM, the “-TDS” value was -2.7 kcal/mol, the DG is -8.1 kcal/mol and the DH was -5.4 kcal/mol. Further, at HumRADA2 [2] (setting [4]), the LLE was 1.5 and the “LE (ligand efficiency)” value amounted to 0.36 kcal mol−1 per heavy atom.

Take `Cl.N[C@@H](Cc1c[nH]c2ccccc12)C(=O)OCCc1ccccc1` [5 c]: on HumRADA2 [3], the “competition with binding of Ac-FHTA-NH2 tetrapeptide” value is “competes with and blocks the binding; also recorded: shows competition with the FxxA binding site”; the “competition with binding of the RadA self-oligomerisation peptide” value was “competes with and blocks the binding; also recorded: shows competition with the FxxA binding site”; the “effect on binding of ATP” value is given as “not affected; also recorded: not the ATP binding site”. The “binding to wild-type RadA” value with wild-type RadA was “no binding”. Further, on HumRADA2 [2], the dissociation constant Kd is 35 ± 4 µM, the “-TDS” value is -3.3 kcal/mol, the DG is -6.0 kcal/mol and the DH is -2.7 kcal/mol. On HumRADA2 [2] (setting [5]), the LLE is on record as 1.1 and the “LE (ligand efficiency)” value is reported as 0.26 kcal mol−1 per heavy atom.

As for `c1ccc2[nH]ncc2c1` [indazole], the dissociation constant (Kd) on HumRADA2 [1] was 1000 µM.

Regarding `COC(=O)[C@@H](N)Cc1c[nH]c2ccccc12` [compound 1, L-tryptophan methyl ester], the Kd at HumRADA2 [1] is 570 µM. On HumRADA2 [2], the “-TDS” value came to 2.0 kcal/mol, the DG is -4.4 kcal/mol and the DH is -6.4 kcal/mol. Also, at HumRADA2 [2] (setting [5]), the LLE is 1.9 and the “LE (ligand efficiency)” value turned out to be 0.28 kcal mol−1 per heavy atom.

Regarding `COC(=O)c1cccc2[nH]ccc12` [4-methyl ester indole], the Kd at HumRADA2 [1] (read-out: KD) is 1300 µM.

`O=C(NC(Cc1c[nH]c2ccccc12)C(=O)OCCc1ccccc1)c1ccccc1` (centres unmarked) [6 a]: at HumRADA2 [2], the affinity, expressed as Kd, was 3 ± 1 µM; the “-TDS” value was -4.2 kcal/mol; the DG was -7.6 kcal/mol; the DH was -3.4 kcal/mol. Also, on HumRADA2 [2] (setting [5]), the LLE is given as 0.5 and the “LE (ligand efficiency)” value is recorded as 0.24 kcal mol−1 per heavy atom.

At HumRADA2 [2], `N[C@@H](Cc1c[nH]c2ccccc12)C(=O)NCCc1ccccc1` [5 e] returned a Kd of over 200 µM.

On to `Cn1cnc(S(=O)(=O)NCCc2c[nH]c3ccccc23)c1` [7 s], for which, on HumRADA2 [2], the Kd turned out to be 420 ± 74 µM. Moreover, on HumRADA2 [2] (setting [4]), the LLE is recorded as 1.8 and the “LE (ligand efficiency)” value was 0.22 kcal mol−1 per heavy atom.

`O=S(=O)(NCCc1c[nH]c2ccccc12)c1ccc(Br)s1` [7 k] gave a Kd at HumRADA2 [2] of 10 ± 1 µM. In addition, on HumRADA2 [2] (setting [4]), the LLE is 1.2 and the “LE (ligand efficiency)” value is 0.32 kcal mol−1 per heavy atom.

At HumRADA2 [2], `O=S(=O)(NCCc1c[nH]c2ccccc12)c1cc2ccccc2s1` [7 p] had a Kd of 1.6 ± 0.6 µM. On HumRADA2 [2] (setting [4]), the LLE is reported as 1.8 and the “LE (ligand efficiency)” value turned out to be 0.33 kcal mol−1 per heavy atom.

`N[C@@H](Cc1c[nH]c2ccccc12)C(=O)OCCc1ccc(Br)cc1` [5 l] returned a Kd at HumRADA2 [2] of over 200 µM.

The term Kd denotes the free concentration of one partner at which half of the binding sites on the other are occupied at equilibrium, for simple one-to-one binding.

The record behind these values is PMC4506530, “Small-Molecule Inhibitors That Target Protein–Protein Interactions in the RAD51 Family of Recombinases” (Chemmedchem, 2014).
